This is an account of results in article PMC8611036, “An integrated method for optimized identification of effective natural inhibitors against SARS-CoV-2 3CLpro” (Scientific Reports, 2021).

Where two headings read alike, the source gives them in different places.

For series [1], the target named is T1, SARS-CoV-2 3CLpro (Severe acute respiratory syndrome coronavirus 2, UniProt P0DTD1). As to the kind of experiment: Surface plasmon resonance analysis (Biacore T200). In kind it is binding. In general terms: Surface plasmon resonance follows binding to a sensor surface in real time, without labels.
For series [2] the following is noted: ref TCMSP database, cited from earlier work; for HBA: number of hydrogen-bond acceptors; for HBD: number of hydrogen-bond donors; for OB (%): oral bioavailability.
Series [3] relates to SARS-CoV 3CLpro. It is filed as biochemical. The conditions noted are these: activity class by pIC50 threshold 6.
Series [4] addresses T1, SARS-CoV-2 3CLpro. The conditions noted are these: SARS-CoV pIC50 multiplied by similarity index (SI), training set compounds.
Series [5] concerns SARS-CoV 3CLpro. The conditions noted are these: SARS-CoV 3CLpro inhibitors (training set), ref: per compound, cited from earlier work; for pIC50: from literature IC50; for IC50: literature values.
The mark [6] stands for this setting: SPR, 25 °C, 3CLpro-his captured on CM7 chip, read-out: KD.

A word on the Kd: it is the equilibrium constant for the complex coming apart. In turn, `C[C@@H]1O[C@@H](OC[C@H]2O[C@@H](Oc3c(-c4ccc(O)cc4)oc4cc(O)cc(O)c4c3=O)[C@H](O)[C@@H](O)[C@@H]2O)[C@H](O)[C@H](O)[C@H]1O` [MOL002693] registered a Kd in series [1] of 3.63 µM.
In series [1], `C[C@@H](CC[C@]1(O)O[C@H]2C[C@H]3[C@@H]4CC[C@@H]5C[C@@H](O[C@@H]6O[C@H](CO)[C@H](O)[C@H](O)[C@H]6O[C@@H]6O[C@H](CO)[C@@H](O)[C@H](O)[C@H]6O)CC[C@]5(C)[C@H]4CC[C@]3(C)[C@H]2[C@@H]1C)CO[C@@H]1O[C@H](CO)[C@@H](O)[C@H](O)[C@H]1O` [MOL004515] returned a Kd of 7.2 µM.
In series [1], `O=C(/C=C/c1ccc(O)c2c1[C@H](C(=O)O)[C@@H](c1ccc(O)c(O)c1)O2)O[C@H](Cc1ccc(O)c(O)c1)C(=O)O` [MOL007113] had a Kd of 15 µM.
With cyanidol [MOL000002], in series [2], the HBA is recorded as 6, the HBD was 5, the “OB (%)” value is recorded as 1.36% and the BBB is recorded as -0.51. In addition, in series [2], the FASA- was 0.34 and the NRotB is reported as 1.
With `O=C(/C=C/c1ccc(O)c(O)c1)O[C@H]1[C@H](O)C[C@](O)(C(=O)O)C[C@H]1OC(=O)/C=C/c1ccc(O)c(O)c1` [MOL001878], in series [1] (setting [6]), the Kd worked out at 0.047 µM.
The same measure, in the same setting: the result for `O=c1c(O[C@@H]2O[C@H](CO)[C@@H](O)[C@H](O)[C@H]2O[C@@H]2O[C@H](CO)[C@@H](O)[C@H](O)[C@H]2O)c(-c2ccc(O)cc2)oc2cc(O)cc(O)c12` [MOL002761] reads 12.5 µM; that for `O=c1c(O[C@@H]2O[C@H](CO)[C@H](O)[C@H](O)[C@H]2O)c(-c2ccc(O)c(O)c2)oc2cc(O)cc(O)c12` [MOL004368], 9.98 µM.
Turning to `Cc1cc(O)c2c(=O)c3c(O)cc(O)c4c5c(O)cc(O)c6c(=O)c7c(O)cc(C)c8c1c2c(c34)c(c78)c65` [MOL002067], the affinity in series [1], expressed as Kd, was 19.9 µM.
Regarding `O=c1cc(-c2ccc(O)cc2)oc2cc(O[C@@H]3O[C@H](CO)[C@@H](O)[C@H](O)[C@H]3O)cc(O)c12` [MOL000007, Cosmetin], in series [2], the HBA was 10, the HBD is reported as 6, the “OB (%)” value is reported as 9.68% and the BBB is given as -2.26. Also, in series [2], the Caco-2 is reported as -1.08, the FASA- is recorded as 0.32 and the NRotB was 4.
`C[C@@H]1O[C@@H](OC[C@H]2O[C@@H](OCCc3ccc(O)c(O)c3)[C@H](O)[C@@H](O)[C@@H]2OC(=O)/C=C/c2ccc(O)c(O)c2)[C@H](O)[C@H](O)[C@H]1O` [MOL003331] displayed a Kd in series [1] of 1.21 µM.
Take `O=c1cc(-c2ccc(O)cc2)oc2cc(O)cc(O)c12` [MOL000008, apigenin]: in series [2], the HBA was 5, the HBD is on record as 3, the “OB (%)” value is 23.06% and the BBB is on record as -0.61. Besides, in series [2], the Caco-2 is 0.43, the FASA- was 0.41 and the NRotB was 1.
What is called pIC50 is the negative decadic logarithm of the IC50, by convention in mol/L. As usually defined, the IC50 is the point on the concentration scale where inhibition reaches its midpoint. As to `COc1ccc(N2C(=O)NC(=O)/C(=C\c3cc(Cl)c(OCc4cccc(C(=O)O)c4)c(Cl)c3)C2=O)cc1` [CMP103], in series [3], the “Inact.(<6)/Act.(>=6)” value is “Inact. (Inact.(<6))”. Besides, the “SI*pIC50” value in series [4] worked out at 5.315. In series [5], the negative logarithm of the IC50 (pIC50) is recorded as 5.164 and the IC50 is 6.86 µM.
On to `COc1ccc(C(c2c(O)c3cc(C)ccc3oc2=O)c2c(O)c3cc(C)ccc3oc2=O)cc1` [CMP105], for which, in series [3], the “Inact.(<6)/Act.(>=6)” value was “Inact. (Inact.(<6))”. The “SI*pIC50” value in series [4] was 5.171. In series [5], the pIC50 is 5.02 and the IC50 is 9.56 µM.
As for `O=c1cc(-c2ccc(O)c(O)c2)oc2cc(O)cc(O)c12` [MOL000006, luteolin], in series [2], the HBA was 6, the HBD was 4, the “OB (%)” value is listed as 36.16% and the BBB is -0.84. In addition, in series [2], the Caco-2 is recorded as 0.19, the FASA- is 0.39, the HL was 15.94 and the NRotB is 1.
In the case of `CCOC(=O)C(=CNc1ccc(S(=O)(=O)c2ccc(/N=C/C(C(=O)OCC)=C(\O)OCC)cc2)cc1)C(=O)OCC` [CMP139], the “Inact.(<6)/Act.(>=6)” value in series [3] is “Inact. (Inact.(<6))”. Further, in series [4], the “SI*pIC50” value worked out at 4.6468. In series [5], the pIC50 was 4.495 and the IC50 was 32 µM.
As to `CCOC(=O)/C=C/[C@H](C[C@@H]1CCNC1=O)NC(=O)[C@H](Cc1ccccc1)NC(=O)[C@@H](NC(=O)[C@H](CO)NC(=O)OC(C)(C)C)C(C)C` [CMP180], the “Inact.(<6)/Act.(>=6)” value in series [3] is “Inact. (Inact.(<6))”. For the same molecule, the “SI*pIC50” value in series [4] is on record as 4.976. Moreover, in series [5], the pIC50 is reported as 4.824 and the IC50 was 15 µM.
Consider `OC[C@@H](O)[C@@H](O)[C@H](O)[C@H](O)CO` [MOL000003, MTL], for which, in series [2], the HBA is given as 6, the HBD is recorded as 6, the “OB (%)” value is 17.73% and the BBB was -4.07. Also, in series [2], the Caco-2 is listed as -1.58, the FASA- was 0.18 and the NRotB was 5.
`CC(=O)n1nc(SSc2ccccc2[N+](=O)[O-])nc1C` [CMP120]: the “Inact.(<6)/Act.(>=6)” value in series [3] is reported as “Inact. (Inact.(<6))”. In addition, the “SI*pIC50” value in series [4] is 5.656. Moreover, in series [5], the pIC50 was 5.504 and the IC50 is 3.13 µM.
With `CCOC(=O)/C=C/[C@H](C[C@@H]1CCNC1=O)NC(=O)[C@H](CC(C)C)NC(=O)[C@@H](NC(=O)[C@H](CO)NC(=O)OC(C)(C)C)C(C)C` [CMP179], the “Inact.(<6)/Act.(>=6)” value in series [3] is “Inact. (Inact.(<6))”. In series [4], the “SI*pIC50” value is recorded as 5.152. Further, in series [5], the pIC50 is 5 and the IC50 was 10 µM.
As to `O=C1Nc2ccc(S(=O)(=O)N3CCOCC3)cc2C1=O` [CMP159], the “Inact.(<6)/Act.(>=6)” value in series [3] is “Inact. (Inact.(<6))”. The “SI*pIC50” value in series [4] is on record as 5.05. Besides, in series [5], the pIC50 is 4.898 and the IC50 was 12.7 µM.
As to `NC(=O)c1ccc2c(c1)C(=O)C(=O)N2c1cccc2ccccc12` [CMP118], the “Inact.(<6)/Act.(>=6)” value in series [3] is “Act. (Act.(>=6))”. Moreover, the “SI*pIC50” value in series [4] came to 6.584. Besides, in series [5], the negative-log IC50 (pIC50) is 6.4318 and the IC50 was 0.37 µM.
As to `O=[N+]([O-])c1ccc(S(=O)(=O)c2ccc(Cl)cc2)[n+]([O-])c1` [CMP121], the “Inact.(<6)/Act.(>=6)” value in series [3] was “Inact. (Inact.(<6))”. For the same molecule, the “SI*pIC50” value in series [4] stood at 4.976. Moreover, in series [5], the pIC50 is 4.824 and the IC50 was 15 µM.
Turning to `O=C(Cc1cncc(Cl)c1)c1cccs1` [CMP181], the “Inact.(<6)/Act.(>=6)” value in series [3] is on record as “Act. (Act.(>=6))”. The “SI*pIC50” value in series [4] amounted to 6.453. Also, in series [5], the pIC50 was 6.301 and the IC50 is 0.5 µM.
As for `CCOC(=O)/C=C/[C@H](C[C@@H]1CCNC1=O)NC(=O)[C@H](CC=C(C)C)CC(=O)[C@@H](NC(=O)c1cc(C)on1)C(C)C` [CMP160], the “Inact.(<6)/Act.(>=6)” value in series [3] is “Inact. (Inact.(<6))”. Further, the “SI*pIC50” value in series [4] came out at 4.307. Moreover, in series [5], the pIC50 is given as 4.1549 and the IC50 is 70 µM.
Regarding `COc1cc(C[S+]([O-])c2nc3cccnc3s2)oc(=O)c1` (stereo not shown) [CMP109], the “Inact.(<6)/Act.(>=6)” value in series [3] is listed as “Inact. (Inact.(<6))”. Further, the “SI*pIC50” value in series [4] is reported as 5.294. Besides, in series [5], the pIC50 is 5.143 and the IC50 was 7.2 µM.
In the case of `Cc1c(O)c(O)cc2c1CC=C1[C@@]2(C)CC[C@@]2(C)[C@@H]3C[C@](C)(C(=O)O)CC[C@]3(C)CC[C@]12C` [CMP161], the “Inact.(<6)/Act.(>=6)” value in series [3] is “Inact. (Inact.(<6))”. In addition, in series [4], the “SI*pIC50” value worked out at 4.816. In series [5], the pIC50 is reported as 4.664 and the IC50 is 21.7 µM.
As for `O=C1C(=O)N(Cc2ccccc2)c2ccc(S(=O)(=O)N3CCOCC3)cc21` [CMP148], the “Inact.(<6)/Act.(>=6)” value in series [3] is given as “Inact. (Inact.(<6))”. For the same molecule, in series [4], the “SI*pIC50” value worked out at 5.01. Besides, in series [5], the pIC50 is listed as 4.858 and the IC50 is 13.9 µM.
As for `O=C(Oc1cncc(Cl)c1)c1cc2ccccc2o1` [CMP169], the “Inact.(<6)/Act.(>=6)” value in series [3] is “Act. (Act.(>=6))”. The “SI*pIC50” value in series [4] is reported as 6.921. Also, in series [5], the pIC50 is 6.77 and the half-maximal inhibitory concentration (IC50) is 0.17 µM.
Consider `O=C(Oc1cncc(Cl)c1)c1ccco1` [CMP158], for which the “Inact.(<6)/Act.(>=6)” value in series [3] is “Act. (Act.(>=6))”. In addition, the “SI*pIC50” value in series [4] is recorded as 7.374. Further, in series [5], the pIC50 was 7.222 and the IC50 was 0.06 µM.
As to `Cc1coc2c1C(=O)C(=O)c1c-2ccc2c1CCCC2(C)C` [CMP130], in series [3], the “Inact.(<6)/Act.(>=6)” value was “Inact. (Inact.(<6))”. Also, the “SI*pIC50” value in series [4] is listed as 5.948. In series [5], the pIC50 is reported as 5.796 and the IC50 was 1.6 µM.
On to `O=C(Cc1nccs1)c1nccs1` [CMP178], for which the “Inact.(<6)/Act.(>=6)” value in series [3] is “Inact. (Inact.(<6))”. Also, the “SI*pIC50” value in series [4] came to 4.55. For the same molecule, in series [5], the pIC50 is 4.398 and the IC50 was 40 µM.
In the case of `O=C(/C=C/c1ccccc1)Nc1ccccc1SC(=O)/C=C/c1ccccc1` [CMP108], the “Inact.(<6)/Act.(>=6)” value in series [3] is listed as “Inact. (Inact.(<6))”. In series [4], the “SI*pIC50” value is 6.127. In addition, in series [5], the pIC50 was 5.975 and the IC50 was 1.06 µM.
Take `COc1ccccc1/N=C/c1nc(-c2ccccc2)oc1OC(C)=O` [CMP113]: in series [3], the “Inact.(<6)/Act.(>=6)” value is listed as “Inact. (Inact.(<6))”. In addition, the “SI*pIC50” value in series [4] is listed as 5.6333. In series [5], the pIC50 was 5.481 and the IC50 was 3.3 µM.
Consider `O=C(Oc1cncc(Cl)c1)c1cc2ccccc2[nH]1` [CMP170], for which, in series [3], the “Inact.(<6)/Act.(>=6)” value is “Act. (Act.(>=6))”. In addition, the “SI*pIC50” value in series [4] was 7.307. In series [5], the pIC50 is 7.1549 and the IC50 was 0.07 µM.
